Measurements taken from patent US20260060944A1, “PHARMACEUTICAL COMPOSITION AND USE THEREOF” (priority 2022, published 2026).

What was measured:
[1] = tested on: human non-small cell lung cancer (A549) cell line; test: In vivo tumor suppression, A549 subcutaneous tumor model in nude mice; parameters: species or system Balb/c nude mice; conditions: A549 tumors in nude mice; for Tumor Weight: after sacrifice
From the text: (§1) Female, 5-week-old Balb/c CAnN.Cg-Foxnlnu/CrlNarl nude mice were obtained from the National Laboratory Animal Center. […] Experiments commenced when they reached six weeks of age.
(§2) Nude mice of six weeks of age were used to establish two lung epithelial carcinoma and animal models. 1×10^7 cells of Human non-small cell lung cancer (NSCLC) cell line A549 and of human lung squamous carcinoma cell line H520, provided by the Food Industry Research and Development Institute in Taiwan, were subcutaneously injected 100 μL into the dorsal area near the right hind limb.
A549 model: 6 mice per group, administered orally once daily for 25 days.
(§3) H520 model: 7 mice per group, administered orally once daily for 13 days. The pharmacologically active multivalent ions used were copper ions in the form of copper gluconate.
(§4) Tumor volume was measured weekly using a tumor measurement device (TM900, Peira, Turnhout, Belgium). After five weeks of drug administration, the mice were sacrificed, and tumors were excised from the right hind limb. Tumor volume was calculated based on the longest and shortest diameters using the formula: […]
(§5) The tumors were then weighed and recorded. Tumor inhibition rates were calculated using the control group as a baseline: […]
A tumor model was established in nude mice via subcutaneous injection. Tumor size was monitored for 14 days, after which the mice were divided into six groups and treated with the pharmaceutical composition. The pharmaceutical-using group continued to be fed the test drug by oral gavage.

[2] = tested on: human lung squamous cell carcinoma (H520) cell line; test: In vivo tumor suppression, H520 subcutaneous tumor model in nude mice; parameters: species or system Balb/c nude mice; conditions: H520 tumors in nude mice
From the text: as §1, §2, §3, §4, §5
A tumor model was established in nude mice via subcutaneous injection. Tumor size was measured over 14 days, after which the mice were then divided into six groups and treated with the pharmaceutical composition. The pharmaceutical-using group continued to be fed the test drug by oral gavage. Due to the rapid growth rate of H520 tumors in vivo, animals were sacrificed when tumors reached a specific size. Tumor model nude mice were sacrificed after 13 days of administration to evaluate changes in tumor growth and observe the inhibitory effect of the test drug on tumors.

[3] = tested on: human lung squamous cell carcinoma (H520) cell line; test: as above; parameters: species or system Balb/c nude mice; conditions: H520 tumors in nude mice, oral once daily
[4] = tested on: human non-small cell lung cancer (A549) cell lines; test: Cell survival rate (MTS) of A549 cells; assay type: cell-based; conditions: for reduction in survival rate: individually administered at concentrations ranging from 2 to 80 nM
Description: (§6) Human cancer cell lines, including non-small cell lung cancer (A549), glioblastoma (U87), glioblastoma (T98G), erythroleukemia type cell line (K-562), acute monocytic leukemia (THP-1), hepatocellular carcinoma (HepG2), colorectal cancer (HCT116), ovarian cancer (TOV-21G), triple-negative breast cancer (MDA-MB-231), or drug-resistant human breast cancer (MCF7-resistant), were cultured in media supplemented with 10% (v/v) fetal bovine serum (FBS) (Penicillin-Streptomycin Solution, ACE Biolabs, CC1009), glutamine-enriched Nutrient Mixture F-12 Ham Kaighn's Modification (F-12/K, SIGMA-ALDRICH, USA), and RPMI-1640 (HiMedia Laboratories LLC, USA). The cell lines were separately incubated in a 5% CO2 atmosphere at 37° C. using a controlled incubator (Astec-SCA-165DS).
(§7) Different cancer cell lines were seeded in 96-well plates and allowed to adhere for 24 hours. Cells were then treated with combinations of three drugs, while untreated cells served as the control group. 20 μL of MTS reagent (Promega, USA) was added to each well and incubated at 37° C. for one hour. Optical density (OD) was measured at 490 nm using an ELISA detector (BioTek EPOCH2) to evaluate the ell viability and proliferation by using the following formula: […]
(§8) In some embodiments of the present invention, drug concentrations used for testing cancer cell lines is in nM and the effective dose range ranged from 0.8 nM to 83 nM.
To evaluate whether the pharmaceutical composition containing various pharmacologically active ions could produce synergistic drug effects, tests were conducted on human non-small cell lung cancer (A549) cell lines. The dose units in Table 2 are expressed in nM. The pharmacologically active ion used in this study was gluconate ion.
To evaluate whether varying dosages of the pharmaceutical composition of the present invention could inhibit the survival rate of human non-small cell lung cancer cell line (A549), cell survival analyses of A549 were conducted.
In this experiment, the pharmacologically active copper ion was cupric in the form of copper gluconate.

[5] = tested on: glioblastoma (U-87) cell line; test: Cell survival rate (MTS) of U-87 cells; assay type: cell-based, Human
Description: as §6, §7, §8
To evaluate the inhibitory effect of the pharmaceutical composition of the present invention on the survival rate of glioblastoma (U-87) cell line, analysis on survival rate was performed.
The active copper ion used in this study was copper gluconate. […] Using the pharmaceutical composition, the concentrations could be reduced while achieving a higher inhibition rate.

[6] = tested on: glioblastoma (T98G) cell line; test: Cell survival rate (MTS) of T98G cells; assay type: cell-based, Human
Description: as §6, §7, §8
To evaluate the inhibitory effect of the pharmaceutical composition of the present invention on the survival rate of glioblastoma (T98G) cell line, analysis on survival rate was performed.
The active copper ion used in this study was copper gluconate.

[7] = oral once daily for 25 days, when sacrificed
[8] = oral once daily, Day 7 of administration
[9] = oral once daily for 13 days, when sacrificed

Compound: COc1cc2ncnc(Nc3ccc(F)c(Cl)c3)c2cc1OCCCN1CCOCC1 [Group S4, Gefitinib]
- Tumor Weight [1]: 0.197 g
- Tumor Volume [1, 7]: 239.6 mm^3
- Tumor Volume [1, 8]: 54.2 mm^3
- Tumor Volume ([1]; oral once daily, Day 11): 69.5 mm^3
- Tumor Volume ([1]; oral once daily, Day 14): 82.0 mm^3
- Tumor Volume ([1]; oral once daily, Day 17): 102.8 mm^3
- Tumor Volume ([1]; oral once daily, Day 20): 141.3 mm^3
- Tumor Volume ([1]; oral once daily, Day 23): 202.6 mm^3
- Tumor Weight ([2]; after sacrifice): 0.981 g
- Tumor Volume [2, 9]: 1653.1 mm^3
- Tumor Volume ([2]; oral once daily, Day 7): 506.4 mm^3
- Tumor Volume ([3]; Day 4 of administration): 259.6 mm^3
- Tumor Volume ([3]; Day 9): 898.6 mm^3
- Tumor Volume ([3]; Day 11): 1290.0 mm^3

Compound: [Zn+2] [zinc]
- Survival Rate (%) ([4]; single agent 1 nM (Table 2)): 104.71%

Compound: O=C(Nc1ccc([N+](=O)[O-])cc1Cl)c1cc(Cl)ccc1O [Niclosamide]
- Survival Rate (%) ([5]; single agent 8 nM): 89.33%
- Survival Rate (%) ([5]; single agent 16 nM): 88.60%
- Tumor Weight [1]: 0.330 g
- tumor volume inhibition rates compared to Group S1 ([1]; at the time of sacrifice): 12.78%
- average tumor weight inhibition rates compared to Group S1 ([1]; following sacrifice): 13.5%
- Tumor Volume [1, 7]: 396.1 mm^3
- Tumor Volume [1, 8]: 73.4 mm^3
- Tumor Volume ([1]; oral once daily, Day 11): 89.7 mm^3
- Tumor Volume ([1]; oral once daily, Day 14): 136.3 mm^3
- Tumor Volume ([1]; oral once daily, Day 17): 179.6 mm^3
- Tumor Volume ([1]; oral once daily, Day 20): 219.0 mm^3
- Tumor Volume ([1]; oral once daily, Day 23): 319.8 mm^3
- Tumor Weight ([2]; after sacrifice): 0.955 g
- average tumor weight inhibition rates compared to Group S1 ([2]; after sacrifice): 30.5%
- tumor volume inhibition rates compared to Group S1 ([2]; at the time of sacrifice): 30.49%
- Tumor Volume [2, 9]: 1604.3 mm^3
- Tumor Volume ([2]; oral once daily, Day 7): 538.8 mm^3
- Survival Rate (%) ([6]; single agent 8 nM): 92.50%
- Survival Rate (%) ([6]; single agent 16 nM): 87.87%
- reduction in survival rate [4]: no significant reduction in survival rate
- Survival Rate (%) ([4]; single agent 2 nM (Table 3)): 112.66%
- Survival Rate (%) ([4]; single agent 6 nM (Table 2)): 98.00%
- Tumor Volume ([3]; Day 4 of administration): 269.6 mm^3
- Tumor Volume ([3]; Day 9): 802.4 mm^3
- Tumor Volume ([3]; Day 11): 1204.1 mm^3

Compound: [Fe+2] [ferrous]
- Survival Rate (%) ([4]; single agent 1 nM (Table 2)): 106.27%

Compound: [Ca] [calcium]
- Survival Rate (%) ([4]; single agent 1 nM (Table 2)): 103.98%

Compound: [Mn+2] [manganese]
- Survival Rate (%) ([4]; single agent 1 nM (Table 2)): 104.35%

Compound: [Mg] [magnesium]
- Survival Rate (%) ([4]; single agent 1 nM (Table 2)): 100.52%

Compound: copper gluconate [cupric]
- Survival Rate (%) ([5]; single agent 16 nM): 103.71%
- Survival Rate (%) ([5]; single agent 41 nM): 103.97%
- Survival Rate (%) ([5]; single agent 83 nM): 101.73%
- Survival Rate (%) ([6]; single agent 16 nM): 102.03%
- Survival Rate (%) ([6]; single agent 41 nM): 102.19%
- Survival Rate (%) ([6]; single agent 83 nM): 98.35%
- reduction in survival rate [4]: no significant reduction in survival rate
- Survival Rate (%) ([4]; single agent 1 nM (Table 2)): 103.70%
- Survival Rate (%) ([4]; single agent 80 nM (Table 3)): 109.28%

Compound: CCN(CC)C(=S)SSC(=S)N(CC)CC [Disulfiram]
- Survival Rate (%) ([5]; single agent 16 nM): 102.66%
- Survival Rate (%) ([5]; single agent 41 nM): 101.02%
- Survival Rate (%) ([5]; single agent 83 nM): 63.98%
- Survival Rate (%) ([6]; single agent 16 nM): 96.37%
- Survival Rate (%) ([6]; single agent 41 nM): 97.27%
- Survival Rate (%) ([6]; single agent 83 nM): 96.15%
- Survival Rate (%) ([4]; single agent 1 nM (Table 2)): 99.58%
- Survival Rate (%) ([4]; single agent 80 nM (Table 3)): 93.85%
